Assays:
Format in all cases: in vivo
[1] = test system: Digitaria sanguinalis (DIGSA); experiment: Test 1B glasshouse assay for herbicidal activity, post-emergence; details: 360 h, 30 g/ha application rate
Method: (§1) Seeds of a variety of monocotyledonous and dicotyledonous test plants are sown in standard soil in pots. The plants are cultivated for one day (for pre-emergence) or for about 12 days (range=10-13 days) (for post-emergence) under controlled conditions in a glasshouse (warm climate species at 24/18° C., cool climate species at 20/16° C., both at day/night; 16 hours light; 65% humidity).
(§2) An “instant formulation”, known as the “IF50”, containing 50 g/liter (i.e. 5% w/v) of the “technical” (i.e. unformulated) active ingredient is prepared by dissolving the active ingredient in a mixture of organic solvents and emulsifier, details of which are provided in the Table below. This IF50 is then mixed with a small, variable amount of acetone to aid dissolution, before addition of a 0.2% v/v aqueous solution of the adjuvant X-77 (which is a mixture of alkyl aryl polyoxyethylene glycols and free fatty acids in isopropanol, CAS Registry number 11097-66-8), as the aqueous diluent, to form an aqueous spray solution which contains a predetermined concentration of the active ingredient (which varies depending on the application rate of the active ingredient to the plants) and 0.2% v/v of the adjuvant X-77. This aqueous spray solution is then sprayed onto the plants, after one day's cultivation (for pre-emergence) or after about 12 days' cultivation (for post-emergence).
(§3) The test plants are then grown on, in a glasshouse (greenhouse) under controlled conditions (at either 24/18° C. or 20/16° C. (day/night) as mentioned above; 16 hours light; 65% humidity) and are watered twice daily. Either 15 days after application of the herbicide (15 DAA) (for post-emergence), or 20 days after application of the herbicide (20 DAA) (for pre-emergence), the test plants are evaluated visually, and an assessed percentage phytotoxicity score is given for each herbicidal application on each plant species (where 100%=total damage to plant; 0%=no damage to plant).
(§4) Warm climate (“warm season”) grassy monocotyledonous weeds: Setaria faberi (SETFA), SORVU (Sorghum bicolor (L.) Moench ssp. Bicolor, or Sorghum vulgare Pers.), Digitaria sanguinalis (DIGSA), Echinochloa crus-galli (ECHCG), and Brachiaria plantaginea (BRAPL).

Setaria faberi (SETFA) [2] = experiment: as above; details: 360 h, 30 g/ha application rate
Method: as §1, §2, §3, §4

[3] = test system: SORVU (Sorghum bicolor (L.) Moench ssp. Bicolor, or Sorghum vulgare Pers.); experiment: as above; details: 360 h, 30 g/ha application rate
Method: as §1, §2, §3, §4

[4] = test system: Glycine max (GLXMA, soybean); experiment: as above; details: 360 h, 30 g/ha application rate
Method: as §1, §2, §3
Warm climate crop plants: Glycine max (GLXMA, soybean).

[5] = test system: Echinochloa crus-galli (ECHCG); experiment: Test 1A glasshouse assay for herbicidal activity, post-emergence; details: 312 h, evaluated after 13 days, read-out: percentage phytotoxicity ECHCG
In short: (§5)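 Test plants grew from seed in standard soil under controlled glasshouse conditions (24/16 °C, 14 h light, 65% humidity) and received an aqueous acetone (50:50) spray with 0.5% Tween 20, either one day after sowing or after eight days. Damage was rated visually as percent phytotoxicity 13 days later.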

[6] = test system: Amaranthus retroflexus (AMARE); experiment: as above; details: 312 h, evaluated after 13 days, read-out: percentage phytotoxicity AMARE
In short: as §5

[7] = test system: Alopecurus myosuroides (ALOMY); experiment: as above; details: 312 h, evaluated after 13 days, read-out: percentage phytotoxicity ALOMY
In short: as §5

Setaria faberi (SETFA) [8] = experiment: as above; details: 312 h, evaluated after 13 days, read-out: percentage phytotoxicity SETFA
In short: as §5

[9] = test system: Alopecurus myosuroides (ALOMY); experiment: Test 1B glasshouse assay for herbicidal activity, post-emergence; details: 360 h, 30 g/ha application rate
Method: as §1, §2, §3
(§6) Cool climate (“cool season”) grassy monocotyledonous weeds: Alopecurus myosuroides (ALOMY), Avena fatua (AVEFA), Lolium perenne (LOLPE).

Lolium perenne (LOLPE) = experiment: as above; details: 360 h, 30 g/ha application rate
Method: as §1, §2, §3, §6

Avena fatua (AVEFA) = experiment: as above; details: 360 h, 30 g/ha application rate
Method: as §1, §2, §3, §6

Compound | pest or weed control at 30 g/ha [1] [%] | pest or weed control at 30 g/ha (Setaria faberi (SETFA) [2]) [%] | pest or weed control at 30 g/ha [3] [%] | plant injury at 30 g/ha [4] [%] | pest or weed control at 250 g/ha [5] [%] | pest or weed control at 250 g/ha [6] [%] | pest or weed control at 250 g/ha [7] [%] | pest or weed control at 250 g/ha (Setaria faberi (SETFA) [8]) [%] | pest or weed control at 30 g/ha [9] [%] | pest or weed control at 30 g/ha (Lolium perenne (LOLPE)) [%] | pest or weed control at 30 g/ha (Avena fatua (AVEFA)) [%] | pest or weed control at 8 g/ha ([5]; 8 g/ha) [%] | pest or weed control at 30 g/ha [5] [%] | pest or weed control at 8 g/ha ([6]; 8 g/ha) [%] | pest or weed control at 30 g/ha [6] [%] | pest or weed control at 8 g/ha ([7]; 8 g/ha) [%] | pest or weed control at 30 g/ha [7] [%] | pest or weed control at 8 g/ha (Setaria faberi (SETFA) [8]; 8 g/ha) [%] | pest or weed control at 30 g/ha (Setaria faberi (SETFA) [8]) [%]
Cc1cc(C#CCl)cc(C)c1C1C(=O)CC(CC2CCOCC2)CC1=O (stereo not shown) [Compound A-8] | 100 | 90 | 90 | 50 | 100 | 40 | 80 | 90 | 80 | 40 | 70 | – | – | – | – | – | – | – | –
CC#Cc1cc(Cl)c(C2C(=O)CC3(CCOCC3)CC2=O)c(OC)c1 [Compound A-20, 9-(2-Chloro-6-methoxy-4-prop-1-ynyl-phenyl)-3-oxa-spiro[5.5]undecane-8,10-dione] | – | – | – | – | 100 | 80 | 100 | 100 | – | – | – | 100 | 100 | 10 | 80 | 90 | 100 | 90 | 100
CC#Cc1cc(C)c(C2C(=O)CC(CCSC)CC2=O)c(C)c1 (stereo not shown) [Compound A-21, 2-(2,6-Dimethyl-4-prop-1-ynyl-phenyl)-5-(2-methylsulfanyl-ethyl)cyclohexane-1,3-dione] | – | – | – | – | 100 | 20 | 90 | 100 | – | – | – | – | 80 | – | 80 | – | 50 | – | 70

Reference: patent publication US9615577B2, “Herbicidally active cyclic dione compounds, or derivatives therefor, substituted by a phenyl which has an alkynyl-containing substituent” (Syngenta Limited, priority 2012, dated 2017)
